Patent US10329281B2, “Polymorphs and process for the preparation of quinazolinyl derivatives” (HETERO LABS LTD, priority 2015, dated 2019)

Legend:
[1] = Stability data of Afatinib dimaleate crystalline Form H3 on storage (PXRD, impurity, water content); type: physicochemical
Protocol: X-ray powder diffraction spectrum was measured on a bruker axs D8 advance X-ray powder diffractometer having a copper-a radiation. Adequate sample was gently flattered on a sample holder and scanned from 2 to 50 degrees two-theta, at 0.02 increment and scan speed of 0.2 Sec/Step. The sample was simply placed on the sample holder. The sample was rotated at 30 rpm at a voltage 40 KV and current 35 mA.

[2] = as above; type: physicochemical; set-up: Impurity: unit not given here
[3] = 25 ± 2° C./RH 60 ± 5%, 2nd Month
[4] = 25 ± 2° C./RH 60 ± 5%, 1st Month
[5] = 25 ± 2° C./RH 60 ± 5%, 3rd Month

Compound: CN(C)C/C=C/C(=O)Nc1cc2c(Nc3ccc(F)c(Cl)c3)ncnc2cc1O[C@H]1CCOC1 [Afatinib dimaleate crystalline Form H3, 2-Butenamide, N-[4-[(3-Chloro-4-fluorophenyl)amino]-7-[[(3S)-tetrahydro-3-furanyl]oxy]-6-quinazolinyl]-4(dimethylamino),(2E)-]
- PXRD ([1]; 5 ± 3° C., 1st Month): Form H3
- PXRD ([1]; 5 ± 3° C., 3rd Month): Form H3
- PXRD ([1]; 5 ± 3° C., Initial): Form H3
- PXRD [1, 3]: Form H3
- Impurity ([2]; 5 ± 3° C., 1st Month): 0.22
- Water Content ([2]; 5 ± 3° C., 1st Month): 1.34%
- Impurity ([2]; 5 ± 3° C., 2nd Month): 0.26
- PXRD ([2]; 5 ± 3° C., 2nd Month): Form H3
- Water Content ([2]; 5 ± 3° C., 2nd Month): 1.4%
- Impurity ([2]; 5 ± 3° C., 3rd Month): 0.27
- Water Content ([2]; 5 ± 3° C., 3rd Month): 1.26%
- Impurity ([2]; 5 ± 3° C., Initial): 0.22
- Water Content ([2]; 5 ± 3° C., Initial): 1%
- Impurity [2, 4]: 0.22
- PXRD [2, 4]: Form H3
- Water Content [2, 4]: 1.18%
- Impurity [2, 3]: 0.38
- Water Content [2, 3]: 1.35%
- Impurity [2, 5]: 0.43
- PXRD [2, 5]: Form H3
- Water Content [2, 5]: 1.56%
- Impurity ([2]; 25 ± 2° C./RH 60 ± 5%, Initial): 0.22
- PXRD ([2]; 25 ± 2° C./RH 60 ± 5%, Initial): Form H3
- Water Content ([2]; 25 ± 2° C./RH 60 ± 5%, Initial): 1%
- stability ([2]; at 5±3° C. and 25±2° C./RH (Relative humidity) 60±5%): stable
